From US10457709B2, “Antimicrobial peptides, their variants and uses” (priority 2015, dated 2019)
≈ marks a conversion by molar mass, not a printed value. Square brackets hold non-standard residues; d marks the D form. Peptide text beside a SMILES is read from it.

Legend:
[1] = tested on: C. glabrata clinical strains; test: MIC, clinical yeast strains; format: cell-based, Candida glabrata; parameters: unit: µg/ml
Protocol: (§1) Minimum inhibition concentrations (MICs) were determined against Escherichia coli (ATCC 25922), Staphylococcus aureus (ATCC 25923), Klebsiella pneumoniae (ATCC 10031) and Pseudomonas aeruginosa (ATCC 27853). Also clinical strains of E. coli, K. pneumoniae, E. cloacae, P. aeruginosa, Serratia marcescens, Proteus mirabilis, S. pneumoniae, Acinetobacter baumannii, A. johnsonii and S. aureus were used for MICs assays. Additionally, clinical strains of yeast including Candida albicans, C. glabrata, C. parapsilosis and C. quillermondiae were used. The susceptibility of these microorganisms to Chain peptides were determined using micro broth dilution assay. Colonies of the respective microorganism from Muller Hinton (MH) agar plates incubated overnight were suspended in MH broth media and final concentration of microorganism was adjusted to 5.0×10^5 cfu/ml. An aliquot of 10 μl of each Chain peptide, or gentamicin, tetracycline as reference antibiotics were added in differing concentrations along with 90 μl of bacterial suspension to 96 well polypropylene plates and incubated at 37° C. for 20 to 24 hours. Concentrations of Chain peptides and reference antibiotics ranged from 0.125 to 128 μg/ml and the MICs were recorded as the lowest concentration with no visual growth of bacteria. Similarly, antifungal MICs were tested in Potato dextrose broth.
(§2) Clinical strains of yeasts including Candida albicans, C. glabrata, C. parapsilosis and C. quillermondiae were also tested with the 12 Chain peptides. The minimum inhibitory concentration (MICs) varied between these peptides and are presented in Tables 4a, 4b, 4c and 5a, 5b, 5c. Peptides Chain 105, 201 and 308 are broad spectrum antimicrobials with MICs between 0.5-32 μg/ml against all the bacteria and yeasts tested, except Serratia marcescens and Proteus mirabilis, against which the MICs were between 64-128 μg/ml. Peptide Chain 306 has narrow spectrum activity against E. coli at 1 μg/ml and for the rest of the bacterial strains at >32 μg/ml (FIG. 10c).

[2] = tested on: Staphylococcus aureus clinical strains; format: cell-based; settings: clinical strains
Protocol: as §1, §2

[3] = tested on: Proteus mirabilis clinical strains; format: cell-based; settings: clinical strains
Protocol: as §1, §2

[4] = tested on: Acinetobacter baumannii clinical strains; format: cell-based; settings: clinical strains
Protocol: as §1, §2

[5] = tested on: Streptococcus pneumoniae clinical strains; format: cell-based; settings: clinical strains
Protocol: as §1, §2

[6] = tested on: Serratia marcescens clinical strains; format: cell-based; settings: clinical strains
Protocol: as §1, §2

[7] = tested on: Enterobacter cloacae clinical strains; format: cell-based; settings: clinical strains
Protocol: as §1, §2

[8] = tested on: C. quillermondiae clinical strains; test: MIC, clinical yeast strains; format: cell-based, Candida quillermondiae; parameters: unit: μg/ml; settings: C. quillermondiae clinical yeast strain 1
Protocol: as §1, §2

[9] = tested on: Pseudomonas aeruginosa clinical strains; format: cell-based; settings: clinical strains
Protocol: as §1, §2

[10] = tested on: Acinetobacter johnsonii clinical strains; format: cell-based; settings: clinical strain 1; D-form peptides; MH broth-cation adjusted, 0.02% BSA, 0.2% acetic acid
Protocol: as §1, §2

[11] = tested on: Escherichia coli clinical strains; format: cell-based; settings: clinical strains
Protocol: as §1, §2

[12] = tested on: Klebsiella pneumoniae clinical strains; format: cell-based; settings: clinical strains
Protocol: as §1, §2

[13] = tested on: all the bacteria and yeasts tested; format: cell-based
Protocol: as §1, §2

[14] = tested on: C. parapsilosis clinical strains; test: MIC, clinical yeast strains; format: cell-based, Candida parapsilosis; parameters: unit: µg/ml
Protocol: as §1, §2

[15] = tested on: Candida albicans clinical strains; test: MIC, clinical yeast strains; format: cell-based; parameters: unit: μg/ml
Protocol: as §1, §2

SMILES: CC[C@@H](C)[C@@H](NC(=O)[C@@H](CCSC)NC(=O)[C@@H](C)NC(=O)[C@@H](CCCNC(=N)N)NC(=O)[C@@H](Cc1c[nH]c2ccccc12)NC(=O)[C@@H](CCCCN)NC(=O)[C@H](N)CCCNC(=N)N)C(=O)N[C@H](CCCNC(=N)N)C(=O)N[C@H](CC(C)C)C(=O)N[C@H](Cc1c[nH]cn1)C(=O)N[C@H](C)C(=O)N[C@H](CCCCN)C(=O)N[C@H](Cc1c[nH]c2ccccc12)C(=O)N[C@H](CC(C)C)C(=O)N[C@H](CCCNC(=N)N)C(=O)N[C@H](CCCCN)C(=O)O [Chain105D] (H-[dR][dK][dW][dR][dA][dM][dI][dR][dL][dH][dA][dK][dW][dL][dR][dK]-OH)
- Minimum inhibitory concentration ([1]; C. glabrata clinical yeast strain 1): 16
- Minimum inhibitory concentration ([1]; C. glabrata clinical yeast strain 2): 16
- Minimum inhibitory concentration ([1]; C. glabrata clinical yeast strain 3): 8
- Minimum inhibitory concentration ([1]; C. glabrata clinical yeast strain 4): 32
- MIC, Staphylococcus aureus strain 1 [2]: 2 µg/mL (≈ 0.93 µM)
- MIC, Staphylococcus aureus strain 2 [2]: 2 µg/mL (≈ 0.93 µM)
- MIC, Staphylococcus aureus strain 3 [2]: 2 µg/mL (≈ 0.93 µM)
- MIC, Staphylococcus aureus strain 4 [2]: 2 µg/mL (≈ 0.93 µM)
- MIC, Staphylococcus aureus strain 5 [2]: 2 µg/mL (≈ 0.93 µM)
- MIC, Proteus mirabilis strain 1 [3]: >128 µg/mL
- MIC, Proteus mirabilis strain 2 [3]: 32 µg/mL (≈ 14.9 µM)
- MIC, Proteus mirabilis strain 3 [3]: 64 µg/mL (≈ 29.8 µM)
- MIC, Proteus mirabilis strain 4 [3]: >128 µg/mL
- MIC, Proteus mirabilis strain 5 [3]: >128 µg/mL
- MICs against Proteus mirabilis [3]: 64 to 128 µg/mL
- MIC, Acinetobacter baumannii strain 1 [4]: 4 µg/mL (≈ 1.86 µM)
- MIC, Acinetobacter baumannii strain 2 [4]: 4 µg/mL (≈ 1.86 µM)
- MIC, Acinetobacter baumannii strain 3 [4]: 4 µg/mL (≈ 1.86 µM)
- MIC, Acinetobacter baumannii strain 4 [4]: 2 µg/mL (≈ 0.93 µM)
- MIC, Acinetobacter baumannii strain 5 [4]: 4 µg/mL (≈ 1.86 µM)
- MIC, Streptococcus pneumoniae strain 1 [5]: 4 µg/mL (≈ 1.86 µM)
- MIC, Streptococcus pneumoniae strain 2 [5]: 2 µg/mL (≈ 0.93 µM)
- MIC, Streptococcus pneumoniae strain 3 [5]: 2 µg/mL (≈ 0.93 µM)
- MIC, Streptococcus pneumoniae strain 4 [5]: 4 µg/mL (≈ 1.86 µM)
- MIC, Streptococcus pneumoniae strain 5 [5]: 2 µg/mL (≈ 0.93 µM)
- MIC, Serratia marcescens strain 1 [6]: 128 µg/mL (≈ 59.5 µM)
- MIC, Serratia marcescens strain 2 [6]: 128 µg/mL (≈ 59.5 µM)
- MIC, Serratia marcescens strain 3 [6]: 128 µg/mL (≈ 59.5 µM)
- MIC, Serratia marcescens strain 4 [6]: 128 µg/mL (≈ 59.5 µM)
- MIC, Serratia marcescens strain 5 [6]: 128 µg/mL (≈ 59.5 µM)
- MICs against Serratia marcescens [6]: 64 to 128 µg/mL
- MIC, Enterobacter cloacae strain 1 [7]: 2 µg/mL (≈ 0.93 µM)
- MIC, Enterobacter cloacae strain 2 [7]: 2 µg/mL (≈ 0.93 µM)
- MIC, Enterobacter cloacae strain 3 [7]: 2 µg/mL (≈ 0.93 µM)
- MIC, Enterobacter cloacae strain 4 [7]: 2 µg/mL (≈ 0.93 µM)
- MIC, Enterobacter cloacae strain 5 [7]: 1 µg/mL (≈ 0.465 µM)
- Minimum inhibitory concentration [8]: 8
- MIC, Pseudomonas aeruginosa strain 1 [9]: 4 µg/mL (≈ 1.86 µM)
- MIC, Pseudomonas aeruginosa strain 2 [9]: 4 µg/mL (≈ 1.86 µM)
- MIC, Pseudomonas aeruginosa strain 3 [9]: 4 µg/mL (≈ 1.86 µM)
- MIC, Pseudomonas aeruginosa strain 4 [9]: 4 µg/mL (≈ 1.86 µM)
- MIC, Pseudomonas aeruginosa strain 5 [9]: 4 µg/mL (≈ 1.86 µM)
- MIC, Acinetobacter johnsonii strain 1 [10]: 4 µg/mL (≈ 1.86 µM)
- MIC, Escherichia coli strain 1 [11]: 1 µg/mL (≈ 0.465 µM)
- MIC, Escherichia coli strain 2 [11]: 4 µg/mL (≈ 1.86 µM)
- MIC, Escherichia coli strain 3 [11]: 1 µg/mL (≈ 0.465 µM)
- MIC, Escherichia coli strain 4 [11]: 1 µg/mL (≈ 0.465 µM)
- MIC, Escherichia coli strain 5 [11]: 2 µg/mL (≈ 0.93 µM)
- MIC, Klebsiella pneumoniae strain 1 [12]: 4 µg/mL (≈ 1.86 µM)
- MIC, Klebsiella pneumoniae strain 2 [12]: 2 µg/mL (≈ 0.93 µM)
- MIC, Klebsiella pneumoniae strain 3 [12]: 4 µg/mL (≈ 1.86 µM)
- MIC, Klebsiella pneumoniae strain 4 [12]: 4 µg/mL (≈ 1.86 µM)
- MIC, Klebsiella pneumoniae strain 5 [12]: 2 µg/mL (≈ 0.93 µM)
- MICs against all the bacteria and yeasts tested [13]: 0.5 to 32 µg/mL
- Minimum inhibitory concentration ([14]; C. parapsilosis clinical yeast strain 1): 8
- Minimum inhibitory concentration ([14]; C. parapsilosis clinical yeast strain 2): 8
- Minimum inhibitory concentration ([14]; C. parapsilosis clinical yeast strain 3): 8
- Minimum inhibitory concentration ([14]; C. parapsilosis clinical yeast strain 4): 4
- Minimum inhibitory concentration ([15]; Candida albicans clinical yeast strain 1): 32
- Minimum inhibitory concentration ([15]; Candida albicans clinical yeast strain 2): 16
- Minimum inhibitory concentration ([15]; Candida albicans clinical yeast strain 3): 32
- Minimum inhibitory concentration ([15]; Candida albicans clinical yeast strain 4): 32
- Minimum inhibitory concentration ([15]; Candida albicans clinical yeast strain 5): 32
